Measured values: PubChem BioAssay AID248 (DTP/NCI, 2004)
Where “and” joins values, the source holds several entries; their conditions need not be identical. Equal values may be shown once. Toxic doses and inconclusive results are not listed. Rule as the data show it: active = T/C of 150% or more; inactive = T/C below 125%.

Test system: L1210 leukemia ip in BDF1 mice, survival T/C
Experiment: NCI In Vivo Anticancer Drug Screen. Data for tumor model L1210 Leukemia (intraperitoneal) in B6D2F1 (BDF1) mice
Details: endpoint: mean survival time, higher = longer survival
Summary of the method: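 Mice bearing the transplanted tumor received compound or vehicle. Survival of the treated group was divided by that of the vehicle-treated control group to give the ratio.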

[1] = dose: 50.0 mg/kg/injection, schedule: Q01DX009 (ip), vehicle: Klucel (hydroxypropylcellulose) (HPC)
[2] = dose: 100.0 mg/kg/injection, schedule: Q01DX009 (ip), vehicle: Klucel (hydroxypropylcellulose) (HPC)
[3] = dose: 100.0 mg/kg/injection, schedule: Q04DX003 (ip), vehicle: Klucel (hydroxypropylcellulose) (HPC)
[4] = dose: 200.0 mg/kg/injection, schedule: Q01DX009 (ip), vehicle: Klucel (hydroxypropylcellulose) (HPC)
[5] = dose: 200.0 mg/kg/injection, schedule: Q04DX003 (ip), vehicle: Klucel (hydroxypropylcellulose) (HPC)
[6] = dose: 400.0 mg/kg/injection, schedule: Q04DX003 (ip), vehicle: Klucel (hydroxypropylcellulose) (HPC)
[7] = dose: 100.0 mg/kg/injection, schedule: Q04DX002 (ip), vehicle: saline with Tween-80
[8] = dose: 200.0 mg/kg/injection, schedule: Q04DX002 (ip), vehicle: saline with Tween-80
[9] = dose: 100.0 mg/kg/injection, schedule: Q04DX002 (ip), vehicle: Klucel (hydroxypropylcellulose) (HPC)
[10] = dose: 100.0 mg/kg/injection, schedule: Q01DX001 (ip), vehicle: saline
[11] = dose: 200.0 mg/kg/injection, schedule: Q01DX001 (ip), vehicle: saline
[12] = dose: 400.0 mg/kg/injection, schedule: Q01DX001 (ip), vehicle: saline
[13] = dose: 100.0 mg/kg/injection, schedule: Q01DX001 (ip), vehicle: Klucel (hydroxypropylcellulose) (HPC)
[14] = dose: 200.0 mg/kg/injection, schedule: Q01DX001 (ip), vehicle: Klucel (hydroxypropylcellulose) (HPC)
[15] = dose: 100.0 mg/kg/injection, schedule: Q04DX003 (ip), vehicle: saline with Tween-80
[16] = dose: 200.0 mg/kg/injection, schedule: Q04DX003 (ip), vehicle: saline with Tween-80
[17] = dose: 400.0 mg/kg/injection, schedule: Q01DX009 (ip), vehicle: Klucel (hydroxypropylcellulose) (HPC)
[18] = dose: 100.0 mg/kg/injection, schedule: Q01DX009 (ip), vehicle: saline with Tween-80
[19] = dose: 200.0 mg/kg/injection, schedule: Q01DX009 (ip), vehicle: saline with Tween-80

Measured: T/C

CC(C)=CC(=O)NC(=O)NS(=O)(=O)c1ccc(Cl)cc1
inactive: [1] 100 % of control | [2] 107 % of control | [3] 105 % of control | [4] 98 % of control | [5] 102 % of control | [6] 106 % of control

Cn1c2ccccc2c2nn3cnnc3nc21
inactive: [7] 108 % of control | [8] 120 % of control

CC(C)CCCC(C)C1CCC2C3CC=C4CC(OC(=O)CCCC5CCCCC5)CCC4(C)C3CCC12C (stereo not given)
inactive: [3] 94 % of control | [5] 94 % of control | [6] 94 % of control

Cc1ccc(NCC(=O)NN)cc1F
inactive: dose: 25.0 mg/kg/injection, schedule: Q04DX002 (ip), vehicle: Klucel (hydroxypropylcellulose) (HPC) 102 % of control | dose: 50.0 mg/kg/injection, schedule: Q04DX002 (ip), vehicle: Klucel (hydroxypropylcellulose) (HPC) 109 % of control | [9] 109 % of control and 112 % of control

CS(=O)(=O)/C=C(\I)c1ccccc1
inactive: [10] 97 % of control | [11] 97 % of control | [12] 93 % of control

CCN=C(N)C(N)=NCC
inactive: dose: 100.0 mg/kg/injection, schedule: Q01DX009 (ip), vehicle: saline 94 % of control | dose: 100.0 mg/kg/injection, schedule: Q04DX003 (ip), vehicle: saline 103 % of control | dose: 200.0 mg/kg/injection, schedule: Q01DX009 (ip), vehicle: saline 94 % of control | dose: 200.0 mg/kg/injection, schedule: Q04DX003 (ip), vehicle: saline 100 % of control | dose: 400.0 mg/kg/injection, schedule: Q01DX009 (ip), vehicle: saline 89 % of control | dose: 400.0 mg/kg/injection, schedule: Q04DX003 (ip), vehicle: saline 97 % of control

CN(C)C1C=CS(=O)(=O)C1 (stereo not given)
inactive: [13] 106 % of control | [14] 106 % of control

CC1(C)C=Cc2ccccc21
inactive: [15] 104 % of control | [16] 96 % of control

O=C(c1ccccc1)N(Nc1ccccc1)c1ccccc1
inactive: [1] 94 % of control | [2] 97 % of control | [3] 98 % of control | [4] 97 % of control | [5] 93 % of control | [17] 89 % of control | [6] 98 % of control

CC(C)CC(NC(=O)C(C)NC(=O)OCc1ccccc1)C(=O)OCc1ccccc1 (stereo not given)
inactive: [15] 92 % of control | [16] 92 % of control | dose: 400.0 mg/kg/injection, schedule: Q04DX003 (ip), vehicle: saline with Tween-80 91 % of control

CCOC(=O)c1cc2c3n(c1=O)CCCC3C(c1ccc(Cl)c(Cl)c1)OC2=O (stereo not given)
inactive: [10] 97 % of control | [11] 104 % of control | [12] 92 % of control

CC(=O)c1cc([N+](=O)[O-])ccc1O
inactive: [10] 90 % of control | [11] 97 % of control | [12] 90 % of control

O=S1(=O)CCC(N(/N=C/c2c[nH]c3ccccc23)c2ccccc2)C1 (stereo not given)
inactive: [9] 103 % of control | dose: 200.0 mg/kg/injection, schedule: Q04DX002 (ip), vehicle: Klucel (hydroxypropylcellulose) (HPC) 110 % of control | dose: 400.0 mg/kg/injection, schedule: Q04DX002 (ip), vehicle: Klucel (hydroxypropylcellulose) (HPC) 100 % of control

O=C(O)CSc1ccc(Cl)cc1
inactive: dose: 50.0 mg/kg/injection, schedule: Q01DX009 (ip), vehicle: saline with Tween-80 100 % of control | [18] 93 % of control | [19] 94 % of control

O=[N+]([O-])c1cc2c3ccccc3oc2c2cccnc12
inactive: [2] 91 % of control | [3] 90 % of control | [4] 90 % of control | [5] 90 % of control | [6] 89 % of control

C=C1CC(=O)N(c2ccc(Cl)cc2)C1=O
inactive: dose: 25.0 mg/kg/injection, schedule: Q01DX001 (ip), vehicle: saline with Tween-80 93 % of control | dose: 50.0 mg/kg/injection, schedule: Q01DX001 (ip), vehicle: saline with Tween-80 98 % of control | dose: 100.0 mg/kg/injection, schedule: Q01DX001 (ip), vehicle: saline with Tween-80 97 % of control

c1ccc2c(B(c3cccc4ccccc34)c3cccc4ccccc34)cccc2c1
inactive: [3] 94 % of control | [5] 97 % of control | [6] 102 % of control

N#CCCc1ccc(O)cc1
inactive: dose: 50.0 mg/kg/injection, schedule: Q01DX009 (ip), vehicle: gum acacia 100 % of control | dose: 100.0 mg/kg/injection, schedule: Q01DX009 (ip), vehicle: gum acacia 107 % of control | dose: 100.0 mg/kg/injection, schedule: Q04DX003 (ip), vehicle: gum acacia 97 % of control | dose: 200.0 mg/kg/injection, schedule: Q01DX009 (ip), vehicle: gum acacia 93 % of control | dose: 200.0 mg/kg/injection, schedule: Q04DX003 (ip), vehicle: gum acacia 97 % of control

CC(=O)c1cccc(NC(=O)Nc2ccc(F)c([N+](=O)[O-])c2)c1
inactive: [2] 95 % of control | [4] 96 % of control

CCc1ccccc1NC(=O)Nc1ccc(C(=O)O)cc1
inactive: [2] 98 % of control | [4] 94 % of control

CCn1c(C)nc2cc(S(=O)(=O)C(F)(F)C(F)Cl)ccc21 (stereo not given)
inactive: [13] 100 % of control | [2] 94 % of control | [14] 97 % of control | [4] 101 % of control | dose: 400.0 mg/kg/injection, schedule: Q01DX001 (ip), vehicle: Klucel (hydroxypropylcellulose) (HPC) 97 % of control | [17] 106 % of control

Cc1[nH]c2ccccc2c1C(c1cc(Cl)cc(Cl)c1O)c1c(C)[nH]c2ccccc12
inactive: [7] 87 % of control | [8] 94 % of control | dose: 400.0 mg/kg/injection, schedule: Q04DX002 (ip), vehicle: saline with Tween-80 91 % of control

CN1CCCC1c1cccnc1 (stereo not given)
inactive: dose: 0.5 mg/kg/injection, schedule: Q01DX009 (ip), vehicle: saline 97 % of control | dose: 0.5 mg/kg/injection, schedule: Q01DX Z (ip), vehicle: saline 97 % of control | dose: 1.0 mg/kg/injection, schedule: Q01DX009 (ip), vehicle: saline 95 % of control and 87 % of control | dose: 1.0 mg/kg/injection, schedule: Q01DX Z (ip), vehicle: saline 94 % of control | dose: 2.0 mg/kg/injection, schedule: Q01DX Z (ip), vehicle: saline 95 % of control

CC(=O)CSC(=S)OC(C)C
inactive: dose: 100.0 mg/kg/injection, schedule: Q04DX002 (ip), vehicle: saline 112 % of control | dose: 200.0 mg/kg/injection, schedule: Q04DX002 (ip), vehicle: saline 94 % of control | dose: 400.0 mg/kg/injection, schedule: Q04DX002 (ip), vehicle: saline 105 % of control

OC(COc1cccc2ccccc12)CN1CCN(c2ccc(Cl)cc2)CC1 (stereo not given)
inactive: [10] 98 % of control | [11] 101 % of control | [12] 97 % of control

COc1cc2c(cc1OC)C1CCN3C(=O)CCC3N1CC2 (stereo not given)
inactive: [1] 101 % of control | [2] 101 % of control | [18] 95 % of control | [4] 104 % of control | [19] 98 % of control | dose: 400.0 mg/kg/injection, schedule: Q01DX009 (ip), vehicle: saline with Tween-80 98 % of control
